16 compounds from patent US20240166660A1, “KRAS G12C INHIBITORS” (BeiGene Switzerland GmbH, priority 2021, published 2024) can be followed below.

As usually defined, the IC50 is the concentration needed to halve the response being measured.

In the experiment the target is KRAS (aa 1-169) G12C, C51S, C80L, C118S (Homo sapiens (Human), UniProt P01116, C118S/C51S/C80L/G12C). Nature of the experiment: Biochemical functional assay: SOS1-mediated nucleotide exchange of GDP-loaded KRAS G12C, binding to GST-cRaf RBD, FRET readout. To be noted: 3 hrs pre-incubation with compound at 24° C., SOS1, GTPyS, inhibition of nucleotide exchange. Summed up: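 GDP-loaded His-tagged KRAS construct preincubated with compound 3 h at 24° C in 25 mM HEPES pH7.5, 10 mM MgCl2, 0.01% Triton X-100; SOS1 (aa 564-1049), GTPγS and GST-cRaf RBD added for 3 h, then anti-His Tb cryptate/anti-GST XL665 for 3 h. HTRF 665/620 ratio; IC50 by four-parameter logistic fit.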
KRAS (aa 1-169) G12C, C51S, C80L, C118S, sequence (P01116 other isoform, or with tags, fused parts or gaps G12C/C51S/C80L/C118S): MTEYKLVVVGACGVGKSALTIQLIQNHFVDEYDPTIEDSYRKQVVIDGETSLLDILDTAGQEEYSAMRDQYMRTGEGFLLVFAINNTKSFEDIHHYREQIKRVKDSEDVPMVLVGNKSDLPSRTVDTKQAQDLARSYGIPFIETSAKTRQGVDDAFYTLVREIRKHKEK

Take `C=C(F)C(=O)N1CCN(c2nc(OC[C@]3(C)CCCN3C)nc3cc(-c4cccc5cccc(Cl)c45)c4c(c23)OCCC4)C[C@@H]1CC#N` [Compound B60, 2-((S)-4-(5-(8-chloronaphthalen-1-yl)-8-(((S)-1,2-dimethylpyrrolidin-2-yl)methoxy)-3,4-dihydro-2H-pyrano[2,3-f]quinazolin-10-yl)-1-(2-fluoroacryloyl)piperazin-2-yl)acetonitrile]: the IC50 turned out to be 0.252 µM. As for `C=C(F)C(=O)N1CCN(c2nc(O[C@@H]3CCCC[C@H]3N(C)C)nc3cc(-c4cccc5cccc(Cl)c45)c4c(c23)OCCC4)C[C@@H]1CC#N` [Compound B61, 2-((S)-4-(5-(8-chloronaphthalen-1-yl)-8-(((1R,2R)-2-(dimethylamino)cyclohexyl)oxy)-3,4-dihydro-2H-pyrano[2,3-f]quinazolin-10-yl)-1-(2-fluoroacryloyl)piperazin-2-yl)acetonitrile], the IC50 came to 0.186 µM.

`C=CC(=O)N1C[C@H](C)N(c2nc(OC[C@@H]3CCCN3C)nc3cc(-c4c(Cl)c(C)cc5[nH]ncc45)c4ccoc4c23)C[C@H]1C` [Compound B62, 1-((2R,5S)-4-(4-(5-chloro-6-methyl-1H-indazol-4-yl)-7-(((S)-1-methylpyrrolidin-2-yl)methoxy)furo[2,3-f]quinazolin-9-yl)-2,5-dimethylpiperazin-1-yl)prop-2-en-1-one]: the IC50 was found to be 0.642 µM. As for `C=CC(=O)N1CCN(c2nc(OC[C@@H]3CCCN3C)nc3cc(-c4cccc5cccc(Cl)c45)c4c(c23)OCCC4)[C@@H](C)C1` [Compound B63, 1-((S)-4-(5-(8-chloronaphthalen-1-yl)-8-(((S)-1-methylpyrrolidin-2-yl)methoxy)-3,4-dihydro-2H-pyrano[2,3-f]quinazolin-10-yl)-3-methylpiperazin-1-yl)prop-2-en-1-one], the IC50 was 0.148 µM.

`C=C(F)C(=O)N1CCN(c2nc(OC3CN(C)C3)nc3cc(-c4cccc5cccc(Cl)c45)c4c(c23)OCCC4)C[C@@H]1CC#N` [Compound B64, (S)-2-(4-(5-(8-chloronaphthalen-1-yl)-8-((1-methylazetidin-3-yl)oxy)-3,4-dihydro-2H-pyrano[2,3-f]quinazolin-10-yl)-1-(2-fluoroacryloyl)piperazin-2-yl)acetonitrile]: the IC50 was found to be 0.247 µM.

Take `C=C(F)C(=O)N1CCN(c2nc(OC[C@@H]3C[C@@H](F)CN3C)nc3cc(-c4cccc5cccc(Cl)c45)c4ccoc4c23)C[C@@H]1CC#N` [Compound B65, 2-((S)-4-(4-(8-chloronaphthalen-1-yl)-7-(((2S,4R)-4-fluoro-1-methylpyrrolidin-2-yl)methoxy)furo[2,3-f]quinazolin-9-yl)-1-(2-fluoroacryloyl)piperazin-2-yl)acetonitrile]: the IC50 worked out at 0.03 µM.

As for `C=C(F)C(=O)N1CCN(c2nc(OC[C@@H]3CCCN3C)nc3cc(-c4cccc5cccc(Cl)c45)c4c(c23)OCCC4)C[C@@H]1CC#N` [Compound B66, 2-((S)-4-(5-(8-chloronaphthalen-1-yl)-8-(((S)-1-methylpyrrolidin-2-yl)methoxy)-3,4-dihydro-2H-pyrano[2,3-f]quinazolin-10-yl)-1-(2-fluoroacryloyl)piperazin-2-yl)acetonitrile], the IC50 was 0.0093 µM. In the case of `C=C(F)C(=O)N1CCN(c2nc(OC3COCC3N(C)C)nc3cc(-c4cccc5cccc(Cl)c45)c4c(c23)OCCC4)C[C@@H]1CC#N` (stereo partly drawn) [Compound B69, 2-((2S)-4-(5-(8-chloronaphthalen-1-yl)-8-((4-(dimethylamino)tetrahydrofuran-3-yl)oxy)-3,4-dihydro-2H-pyrano[2,3-f]quinazolin-10-yl)-1-(2-fluoroacryloyl)piperazin-2-yl)acetonitrile] it was 1.22 µM; in that of `C=C(F)C(=O)N1CCN(c2nc(OC[C@@H]3CCCN3C)nc3cc(-c4cccc5ccc(Cl)cc45)c4c(c23)OCCC4)C[C@@H]1CC#N` [Compound B70, 2-((S)-4-(5-(7-chloronaphthalen-1-yl)-8-(((S)-1-methylpyrrolidin-2-yl)methoxy)-3,4-dihydro-2H-pyrano[2,3-f]quinazolin-10-yl)-1-(2-fluoroacryloyl)piperazin-2-yl)acetonitrile], 0.035 µM. Take `C=C(F)C(=O)N1CCN(c2nc(O[C@@H]3CCN(C)C3)nc3cc(-c4cccc5cccc(Cl)c45)c4c(c23)OCCC4)C[C@@H]1CC#N` [Compound B71, 2-((S)-4-(5-(8-chloronaphthalen-1-yl)-8-(((R)-1-methylpyrrolidin-3-yl)oxy)-3,4-dihydro-2H-pyrano[2,3-f]quinazolin-10-yl)-1-(2-fluoroacryloyl)piperazin-2-yl)acetonitrile]: the IC50 was determined as 0.304 µM. Take `C=C(F)C(=O)N1CCN(c2nc(OC[C@@H]3COCCN3C)nc3cc(-c4cccc5cccc(Cl)c45)c4c(c23)OCCC4)C[C@@H]1CC#N` [Compound B72, 2-((S)-4-(5-(8-chloronaphthalen-1-yl)-8-(((S)-4-methylmorpholin-3-yl)methoxy)-3,4-dihydro-2H-pyrano[2,3-f]quinazolin-10-yl)-1-(2-fluoroacryloyl)piperazin-2-yl)acetonitrile]: the half-maximal inhibitory concentration (IC50) amounted to 0.194 µM.

Consider `C=C(F)C(=O)N1CCN(c2nc(OC[C@@H]3C[C@H]4C[C@H]4N3C)nc3cc(-c4cccc5cccc(Cl)c45)c4c(c23)OCCC4)C[C@@H]1CC#N` [Compound B73, 2-((S)-4-(5-(8-chloronaphthalen-1-yl)-8-(((1R,3S,5R)-2-methyl-2-azabicyclo[3.1.0]hexan-3-yl)methoxy)-3,4-dihydro-2H-pyrano[2,3-f]quinazolin-10-yl)-1-(2-fluoroacryloyl)piperazin-2-yl)acetonitrile], for which the IC50 is 0.05 µM. In the case of `C=C(F)C(=O)N1CCN(c2nc(N3CCCC(N(C)C)C3)nc3cc(-c4cccc5cccc(Cl)c45)c4c(c23)OCCC4)C[C@@H]1CC#N` (stereo partly drawn) [Compound B74, 2-((2S)-4-(5-(8-chloronaphthalen-1-yl)-8-(3-(dimethylamino)piperidin-1-yl)-3,4-dihydro-2H-pyrano[2,3-f]quinazolin-10-yl)-1-(2-fluoroacryloyl)piperazin-2-yl)acetonitrile] it was 0.837 µM; in that of `C=C(F)C(=O)N1CCN(c2nc(OC[C@@H]3CCN(C)C3)nc3cc(-c4cccc5cccc(Cl)c45)c4c(c23)OCCC4)C[C@@H]1CC#N` [Compound B75, 2-((S)-4-(5-(8-chloronaphthalen-1-yl)-8-(((R)-1-methylpyrrolidin-3-yl)methoxy)-3,4-dihydro-2H-pyrano[2,3-f]quinazolin-10-yl)-1-(2-fluoroacryloyl)piperazin-2-yl)acetonitrile], 0.044 µM; in that of `C=CC(=O)N1CCN(c2nc(OC[C@@H]3CCCN3C)nc3cc(-c4c(C)cccc4Cl)c4ccoc4c23)CC1` [Compound B76, 1-(4-(4-(2-chloro-6-methylphenyl)-7-(((S)-1-methylpyrrolidin-2-yl)methoxy)furo[2,3-f]quinazolin-9-yl)piperazin-1-yl)prop-2-en-1-one], 0.279 µM. Turning to `C=C(F)C(=O)N1CCN(c2nc(OC[C@@H]3CCCN3C)nc3cc(-c4ccc(C)cc4C(F)(F)F)c4ccoc4c23)C[C@@H]1CC#N` [Compound B77, 2-((S)-1-(2-fluoroacryloyl)-4-(4-(4-methyl-2-(trifluoromethyl)phenyl)-7-(((S)-1-methylpyrrolidin-2-yl)methoxy)furo[2,3-f]quinazolin-9-yl)piperazin-2-yl)acetonitrile], the concentration for half-maximal inhibition (IC50) was determined as 0.535 µM.
